“And” between values parts separate entries of the source, which are not always exact repeats. Equal entries are not always repeated.
Experiments:
D1 = target: T1, D1 (Homo sapiens, UniProt P21728); experiment: CNS receptor binding, dopamine D1; settings: HEK293 cell line, [3H]-SCH23390(1)
T1 construct: expressed in transfected cells; host or cells: HEK293 cell line
Procedure: (§1) Albiflorin (10 μM) was tested for numerous other potential binding targets by using standard receptor binding procedures. The tested targets included the following receptors: D1, D2, D3, D4, D5, 5-HT1A, 5-HT1B, 5-HT1D, 5-HT2a, 5-HT2C, 5-HT3, 5-HT5A, 5-HT6, 5-HT7, α1A, α1B, α2A, β1, M1, M2, M3, M4, M5, μ, κ, δ, A1, A2A, H1, H2, H3, H4.

SERT = target: T2, SERT (Rattus norvegicus, UniProt P31652); experiment: Rat synaptosome uptake assay, [3H]-5-HT; format: biochemical; settings: Mid brain synaptosome
T2 construct: rat brain synaptosomes were prepared and treated with various concentrations of albiflorin; from tissue; host or cells: Sprague-Dawley rat brain synaptosomes (cerebral cortex in the text)
Procedure: Male Sprague–Dawley rats were killed by asphyxiation with carbon dioxide and cervical dislocation followed by decapitation. […] All dissected tissues were homogenised using a Teflon-glass tissue homogeniser in 4 mL of ice-cold sucrose (0.32 M). The homogenised tissue was centrifuged at 2,000× g for 10 min at 4 °C. […] Bio-Rad protein assay reagents (1:5 ratio) were used to analyse the protein concentration of the synaptosomal suspension. Uptake of 5-HT, NE and DA was determined as described previously. The compounds to be tested were dissolved in DMSO, further diluted with assay buffer, and tested over a 10-log unit concentration range in duplicate. Samples of 30–50 μg of synaptosomes (per sample in a total volume of 200 μL) were preincubated at 37 °C in a shaking water bath for 10 min. Vehicle or modifiers were then added for 10–20 min. Uptake was initiated by adding [^3H]-5-HT (20 nM), [^3H]-NE (20 nM), or [^3H]-DA (50 nM). After a 10-min incubation at 37 °C, uptake was terminated by filtration through (polyethyleneimine-coated) GF/B Whatman filters using a Brandel Cell Harvester (Brandel, Gaithersburg, MD).
(§2) All data for inhibition curves were analysed by nonlinear regression using Prism software (GraphPad Software Inc., San Diego, CA) to determine IC50 values. […]

H3 = H3 (Homo sapiens, UniProt Q9Y5N1); experiment: CNS receptor binding, histamine H3; settings: CHO cell line, [3H]-hestamine(1)
Procedure: as §1

H4 = H4 (Homo sapiens, UniProt Q9H3N8); experiment: CNS receptor binding, histamine H4; settings: CHO cell line, [3H]-histamine(1)
Procedure: as §1

5-HT3 = 5-HT3 (Homo sapiens, UniProt P46098); experiment: CNS receptor binding, 5-HT3; settings: HEK293 cell line
Procedure: as §1

rat NET = target: T3, rat NET (Rattus norvegicus, UniProt Q63380); experiment: Rat monoamine transporter binding assay, NET
T3 construct: from tissue; host or cells: Sprague-Dawley rat hypothalamus membranes
Procedure: Male Sprague–Dawley rats were killed by cervical dislocation, and their brains were rapidly removed and then dissected on ice. The cerebral cortex, hypothalamus and striatum were homogenised in 4 mL of assay buffer (50 mM Tris–HCl buffer, pH 7.4.) and centrifuged at 40,000× g for 10 min at 4 °C. The pellets were centrifuged twice at 20,000× g and then resuspended in 4 mL of assay buffer. […] Bio-Rad protein assay reagents (1:5 ratio) were used to analyse the protein concentration of the synaptosomal suspension.
(§3) All data for inhibition curves were analysed by nonlinear regression using Prism software (GraphPad Software Inc., San Diego, CA) to determine IC50 values. For the microdialysis experiments, two-way repeated-measures ANOVA followed by Tukey’s test was used to compare the percentage increase over baseline between groups, time and treatment as independent factors, and time as the repeated factor.

M4 = M4 (Homo sapiens, UniProt P08173); experiment: CNS receptor binding, muscarinic M4; settings: CHO cell line, [3H]-NMS(1)
Procedure: as §1

hDAT = target: T4, hDAT (Homo sapiens, UniProt Q01959); settings: [3H]-win35,428, HEK293 cell line, read-out: Ki values, DAT binding
T4 construct: expressed in transfected cells
Procedure: (§4) Membranes were prepared from HEK293 cells stably expressing hSERT, hNET, or hDAT as described previously. Briefly, [^3H]-citalopram (1 nM), [^3H]-nisoxetine (2 nM), or [^3H]-WIN35,428 (2 nM) was used to label human 5-HT, NE, or DA transporters, respectively.
as §3

α1B = α1B (Homo sapiens, UniProt P35368); experiment: CNS receptor binding, NE receptor α1B; settings: HEK293 cell line, [3H]-parzosin(1)
Procedure: as §1

β1 = β1 (Homo sapiens, UniProt P08588); experiment: CNS receptor binding, NE receptor β1; settings: HEK293 cell line, [3H]-DHA(1)
Procedure: as §1

NET = NET (Rattus norvegicus, UniProt Q63380); format: biochemical; settings: Frontal cortex synaptosome, read-out: IC50 values, uptake of [3H]-NE (NET)
Procedure: (§5) Male Sprague–Dawley rats were killed by asphyxiation with carbon dioxide and cervical dislocation followed by decapitation. The brains were removed quickly and the cerebral cortex, hypothalamus and striatum were dissected on ice. All dissected tissues were homogenised using a Teflon-glass tissue homogeniser in 4 mL of ice-cold sucrose (0.32 M). The homogenised tissue was centrifuged at 2,000× g for 10 min at 4 °C. […] Bio-Rad protein assay reagents (1:5 ratio) were used to analyse the protein concentration of the synaptosomal suspension. Uptake of 5-HT, NE and DA was determined as described previously. The compounds to be tested were dissolved in DMSO, further diluted with assay buffer, and tested over a 10-log unit concentration range in duplicate. Samples of 30–50 μg of synaptosomes (per sample in a total volume of 200 μL) were preincubated at 37 °C in a shaking water bath for 10 min. Vehicle or modifiers were then added for 10–20 min. Uptake was initiated by adding [^3H]-5-HT (20 nM), [^3H]-NE (20 nM), or [^3H]-DA (50 nM). After a 10-min incubation at 37 °C, uptake was terminated by filtration through (polyethyleneimine-coated) GF/B Whatman filters using a Brandel Cell Harvester (Brandel, Gaithersburg, MD).
as §2

DAT = target: T5, DAT (Rattus norvegicus, UniProt P23977); format: biochemical; settings: Striatum synaptosome, read-out: IC50 values, uptake of [3H]-DA (DAT)
T5 construct: rat brain synaptosomes were prepared and treated with various concentrations of albiflorin; from tissue; host or cells: Sprague-Dawley rat striatal synaptosomes
Procedure: as §5, §2

hNET = target: T6, hNET (Homo sapiens, UniProt P23975); experiment: Human monoamine transporter binding assay, NET
T6 construct: expressed in transfected cells
Procedure: as §4, §3

[1] = read-out: IC50 values for albiflorin

T3 sequence (Q63380 1-617): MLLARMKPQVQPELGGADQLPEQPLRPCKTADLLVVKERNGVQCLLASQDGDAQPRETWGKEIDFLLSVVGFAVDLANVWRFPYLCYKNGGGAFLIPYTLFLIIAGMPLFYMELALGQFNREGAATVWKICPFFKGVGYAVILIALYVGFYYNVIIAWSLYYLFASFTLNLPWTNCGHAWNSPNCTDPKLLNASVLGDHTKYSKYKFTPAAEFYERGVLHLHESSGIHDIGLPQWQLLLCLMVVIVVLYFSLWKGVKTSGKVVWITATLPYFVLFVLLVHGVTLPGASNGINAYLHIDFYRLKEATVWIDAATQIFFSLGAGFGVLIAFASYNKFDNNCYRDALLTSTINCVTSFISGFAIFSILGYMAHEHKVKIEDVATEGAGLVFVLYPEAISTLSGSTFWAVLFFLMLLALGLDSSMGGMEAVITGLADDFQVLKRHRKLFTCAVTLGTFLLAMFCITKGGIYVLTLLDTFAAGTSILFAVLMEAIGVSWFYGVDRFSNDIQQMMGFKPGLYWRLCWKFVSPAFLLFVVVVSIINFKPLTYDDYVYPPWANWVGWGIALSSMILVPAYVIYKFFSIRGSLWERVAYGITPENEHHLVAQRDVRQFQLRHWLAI
T1 sequence (P21728 whole entry): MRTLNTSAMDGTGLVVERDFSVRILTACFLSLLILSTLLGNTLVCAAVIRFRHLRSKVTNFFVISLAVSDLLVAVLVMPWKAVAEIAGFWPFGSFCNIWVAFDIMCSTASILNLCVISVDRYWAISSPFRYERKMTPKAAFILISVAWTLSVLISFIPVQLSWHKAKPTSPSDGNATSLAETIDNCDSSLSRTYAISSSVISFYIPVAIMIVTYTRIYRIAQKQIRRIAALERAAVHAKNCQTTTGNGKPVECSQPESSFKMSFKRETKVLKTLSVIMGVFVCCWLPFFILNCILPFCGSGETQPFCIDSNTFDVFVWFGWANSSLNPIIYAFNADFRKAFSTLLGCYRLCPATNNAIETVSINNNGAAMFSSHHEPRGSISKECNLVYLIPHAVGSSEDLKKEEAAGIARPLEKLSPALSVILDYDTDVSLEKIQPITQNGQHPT
T6 sequence (P23975 whole entry): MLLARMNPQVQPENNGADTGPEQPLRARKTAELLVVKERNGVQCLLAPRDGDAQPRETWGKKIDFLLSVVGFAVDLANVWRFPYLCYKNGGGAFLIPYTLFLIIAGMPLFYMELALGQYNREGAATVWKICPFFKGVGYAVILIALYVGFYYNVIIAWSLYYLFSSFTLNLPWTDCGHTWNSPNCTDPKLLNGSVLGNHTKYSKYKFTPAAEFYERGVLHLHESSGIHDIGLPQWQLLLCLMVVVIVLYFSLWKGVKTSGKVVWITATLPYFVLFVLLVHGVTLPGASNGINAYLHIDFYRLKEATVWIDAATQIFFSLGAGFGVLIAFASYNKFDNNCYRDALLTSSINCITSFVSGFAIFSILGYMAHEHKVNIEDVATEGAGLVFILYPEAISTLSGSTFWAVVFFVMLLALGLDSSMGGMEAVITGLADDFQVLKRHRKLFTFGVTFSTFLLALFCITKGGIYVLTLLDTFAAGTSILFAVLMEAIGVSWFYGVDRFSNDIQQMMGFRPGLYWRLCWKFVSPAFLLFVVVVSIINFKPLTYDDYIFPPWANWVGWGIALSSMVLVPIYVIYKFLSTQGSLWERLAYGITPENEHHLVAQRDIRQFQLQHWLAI
H3, sequence (Q9Y5N1 whole entry): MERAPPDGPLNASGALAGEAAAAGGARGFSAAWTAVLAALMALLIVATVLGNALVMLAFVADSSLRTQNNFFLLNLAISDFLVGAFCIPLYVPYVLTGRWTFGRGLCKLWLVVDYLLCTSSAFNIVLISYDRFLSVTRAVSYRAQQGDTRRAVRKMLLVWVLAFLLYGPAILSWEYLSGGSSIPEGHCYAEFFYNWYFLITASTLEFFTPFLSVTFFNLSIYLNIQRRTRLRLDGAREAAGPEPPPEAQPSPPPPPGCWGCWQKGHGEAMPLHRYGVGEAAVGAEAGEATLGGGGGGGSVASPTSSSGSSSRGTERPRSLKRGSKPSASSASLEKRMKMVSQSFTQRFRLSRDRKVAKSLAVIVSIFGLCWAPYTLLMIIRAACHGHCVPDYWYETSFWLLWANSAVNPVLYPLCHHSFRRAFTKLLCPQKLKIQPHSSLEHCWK
5-HT3, sequence (P46098 24-478): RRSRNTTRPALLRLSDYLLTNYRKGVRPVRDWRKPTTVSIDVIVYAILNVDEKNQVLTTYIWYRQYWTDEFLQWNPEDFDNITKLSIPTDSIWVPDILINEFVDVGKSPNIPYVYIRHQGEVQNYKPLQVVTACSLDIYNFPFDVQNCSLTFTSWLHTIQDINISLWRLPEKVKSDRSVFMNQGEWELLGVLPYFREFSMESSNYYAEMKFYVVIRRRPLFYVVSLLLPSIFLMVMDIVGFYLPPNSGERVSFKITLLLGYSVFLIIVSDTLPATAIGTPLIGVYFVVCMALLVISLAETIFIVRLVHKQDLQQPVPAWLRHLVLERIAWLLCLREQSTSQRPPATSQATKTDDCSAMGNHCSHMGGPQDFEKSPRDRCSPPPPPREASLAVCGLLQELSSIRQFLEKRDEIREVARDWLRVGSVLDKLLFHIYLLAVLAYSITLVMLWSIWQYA
M4, sequence (P08173 whole entry): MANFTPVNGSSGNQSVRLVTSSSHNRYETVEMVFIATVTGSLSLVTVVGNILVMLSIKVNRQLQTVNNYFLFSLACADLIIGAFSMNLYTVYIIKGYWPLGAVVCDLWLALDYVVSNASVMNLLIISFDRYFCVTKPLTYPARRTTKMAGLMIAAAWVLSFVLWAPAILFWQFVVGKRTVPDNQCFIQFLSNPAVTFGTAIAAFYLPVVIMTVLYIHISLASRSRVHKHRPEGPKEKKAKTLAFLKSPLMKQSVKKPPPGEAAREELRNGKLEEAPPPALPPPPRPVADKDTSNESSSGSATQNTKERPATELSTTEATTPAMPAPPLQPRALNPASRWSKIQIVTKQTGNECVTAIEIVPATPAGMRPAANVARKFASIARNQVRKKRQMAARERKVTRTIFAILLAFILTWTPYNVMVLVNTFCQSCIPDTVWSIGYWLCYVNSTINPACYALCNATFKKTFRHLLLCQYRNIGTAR
H4, sequence (Q9H3N8 whole entry): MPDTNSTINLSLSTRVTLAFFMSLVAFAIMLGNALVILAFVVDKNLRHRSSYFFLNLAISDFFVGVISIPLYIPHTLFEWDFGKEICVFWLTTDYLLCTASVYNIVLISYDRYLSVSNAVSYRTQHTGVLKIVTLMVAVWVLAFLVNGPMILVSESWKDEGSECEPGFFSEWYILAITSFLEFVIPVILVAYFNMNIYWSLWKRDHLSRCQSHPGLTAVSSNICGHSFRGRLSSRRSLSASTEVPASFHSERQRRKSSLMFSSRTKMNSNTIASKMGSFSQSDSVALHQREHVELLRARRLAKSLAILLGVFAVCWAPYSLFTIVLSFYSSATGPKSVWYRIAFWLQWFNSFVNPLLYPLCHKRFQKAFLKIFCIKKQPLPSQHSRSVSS
β1, sequence (P08588 whole entry): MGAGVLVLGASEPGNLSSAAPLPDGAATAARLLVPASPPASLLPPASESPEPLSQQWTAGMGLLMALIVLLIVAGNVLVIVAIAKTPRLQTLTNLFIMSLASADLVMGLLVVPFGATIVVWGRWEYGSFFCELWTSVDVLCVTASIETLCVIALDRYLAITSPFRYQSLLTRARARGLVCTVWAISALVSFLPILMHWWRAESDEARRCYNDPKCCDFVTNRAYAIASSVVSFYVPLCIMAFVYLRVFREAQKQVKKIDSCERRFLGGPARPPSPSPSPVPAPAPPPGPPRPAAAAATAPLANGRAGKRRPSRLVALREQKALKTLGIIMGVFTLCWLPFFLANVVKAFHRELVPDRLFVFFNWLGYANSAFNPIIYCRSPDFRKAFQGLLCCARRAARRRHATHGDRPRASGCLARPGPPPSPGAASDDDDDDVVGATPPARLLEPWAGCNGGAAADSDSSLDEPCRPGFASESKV
α1B, sequence (P35368 whole entry): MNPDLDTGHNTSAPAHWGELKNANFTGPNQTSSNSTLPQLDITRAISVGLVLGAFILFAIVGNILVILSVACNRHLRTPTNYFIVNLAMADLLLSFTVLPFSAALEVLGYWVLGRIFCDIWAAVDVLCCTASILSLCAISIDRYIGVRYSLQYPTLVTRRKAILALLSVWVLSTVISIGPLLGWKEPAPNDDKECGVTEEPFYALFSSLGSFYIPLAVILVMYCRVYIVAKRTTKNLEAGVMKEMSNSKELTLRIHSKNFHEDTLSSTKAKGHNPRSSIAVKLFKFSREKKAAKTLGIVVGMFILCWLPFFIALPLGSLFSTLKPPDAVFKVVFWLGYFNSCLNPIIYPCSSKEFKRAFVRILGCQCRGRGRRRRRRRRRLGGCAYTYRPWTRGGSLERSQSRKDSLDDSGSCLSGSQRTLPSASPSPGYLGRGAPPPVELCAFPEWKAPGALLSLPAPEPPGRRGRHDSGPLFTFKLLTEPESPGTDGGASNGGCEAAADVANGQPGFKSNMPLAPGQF
NET, sequence (Q63380 1-617): as the sequence (Q63380 1-617) above

C[C@]12C[C@@H](O)[C@@H]3C[C@@]1(O[C@@H]1O[C@H](CO)[C@@H](O)[C@H](O)[C@H]1O)[C@@]3(COC(=O)c1ccccc1)C(=O)O2 [albiflorin, Albiflorin]
% Inhibition of binding at 10 μM albiflorin (D1): 54.20%
IC50 (D1; [1]): 2990 ± 166 nM
IC50 (SERT): 3.04 ± 0.84 nM
% Inhibition of binding at 10 μM albiflorin (H3): 12.33%
IC50 (H3; [1]): > 10000 nM
% Inhibition of binding at 10 μM albiflorin (H4): 6.33%
IC50 (H4; [1]): > 10000 nM
% Inhibition of binding at 10 μM albiflorin (5-HT3; [3H]-BRL3694): 17.38%
IC50 (5-HT3; [3H]-BRL3694, read-out: IC50 values for albiflorin): > 10000 nM
Ki (rat NET; Rat, [3H]-nisoxetine, Hypothalamus): 1.25 ± 0.77 nM
potency/affinity relative to desipramine at the rat NET (rat NET; albiflorin vs desipramine): 4 fold and 6 fold
% Inhibition of binding at 10 μM albiflorin (M4): 15.33%
IC50 (M4; [1]): > 10000 nM
Ki (hDAT): 1480 ± 33.2 nM
% Inhibition of binding at 10 μM albiflorin (α1B): 12.33%
IC50 (α1B; [1]): > 10000 nM
% Inhibition of binding at 10 μM albiflorin (β1): 63.22%
IC50 (β1; [1]): 3360 ± 212 nM
IC50 (NET): 0.98 ± 0.24 nM
IC50 (DAT): 3690 ± 114 nM
Ki (hNET; Human, [3H]-nisoxetine, HEK293 cell line): 1.23 ± 0.07 nM
affinity relative to desipramine in hNET binding assay (hNET; albiflorin vs desipramine): 4 fold
